Measurements taken from patent US8361510B2, “Nanogels for cellular delivery of therapeutics” (Georgia Tech Research Corporation, priority 2008, dated 2013).
Where no end group is shown, it is not given here.

Columns and labels:
Assay type in all cases: cell-based
Hey cells [1] = test: Flow cytometry of nanogel binding/uptake; settings: 0.8 mg/mL nanogels, four hours
Procedure: Flow cytometry. Hey cells were plated at 2.5×10^5 cells/well in a 12-well, cell culture plate. Cells were allowed to adhere overnight in an incubator at 37° C. in a 5% CO2 atmosphere. Cells were washed, and fresh medium was added containing YSA-pNIPMAm or SCR-pNIPMAm nanogels at a concentration of 0.8 mg/mL and incubated for four hours. Following incubation, the cells were washed with PBS and removed from the plate by Trypsin-EDTA treatment. The cells were washed with PBS and fixed with 2% (v/v) paraformaldehyde. Cells were analyzed using a LSR Flow Cytometer (BD Biosciences). Data analysis was carried out using FlowJo software.

Hey cells [2] = test: Trypan blue exclusion assay
Procedure: Toxicity Studies—Trypan blue exclusion assay. Hey cells were plated onto an 8-well chamber slide (1×10^4 cells/well) and allowed to adhere overnight at 37° C. and 5% CO2. The media was removed, the wells washed with PBS, and the medium replaced. PNIPMAm nanogels, YSA-conjugated nanogels, and SCR-conjugated nanogels were added to cells and incubated for 72 h. Untreated cells were used as controls. After 72 h, the cells washed with PBS, and a 1:1 solution of trypan blue was added to each well. After 1 min, the trypan blue was removed, the cells were washed with PBS, fixed with 2% (v/v) paraformaldehyde, and air dried. Each well was then viewed via bright field microscopy to determine the number of stained (dead) versus unstained cells. Five fields were viewed for each treatment.

EGFR = EGFR expression by immunoblotting in Hey cells; settings: Example 2
Procedure: Immunoblotting. Hey cells were plated into 6-well plates (5×10^5/well) and allowed to adhere overnight at 37° C., 5% CO2. The cells were lysed with 100 μL of lysis buffer (50 mM Tris-HCl, pH 7.5, 150 mM NaCl, 2 mM EDTA (Fisher), 2 mM EGTA (Fisher), 1 mM sodium orthovanadate, 2.5 mM sodium pyrophosphate, 1 mM β-gycerolphosphate, 1 mM phenylmethanesulfonyl fluoride, 10 μg/mL aprotinin, 10 μg/mL leupeptin, 1% Triton X-100, and 5% glycerol), and the cell lysates sonicated four times for five seconds each. The lysates were cleared by centrifugation at 11,000×g rcf for […] at 4° C. Cell lysates were prepared for analysis by the addition of an equal volume of Laemmli 2× sample buffer. The samples were heated to 95° C. for […] to denature the proteins. The proteins were separated on a 10% SDS-PAGE gel and transferred onto nitrocellulose. The blots were blocked with either 5% nonfat dry milk (NFDM) or 5% bovine serum albumin (BSA) in 10 mM Tris-buffered saline, pH 7.5 plus 1% Tween 20 (TBST, BioRad) for 1 hour at room temperature. The blots were probed with anti-EGFR antibody (Cell Signaling, Danvers, Mass.; cat. no. 4405) or with a β-actin antibody (Millipore, Billerica, Mass.; Mab1501) diluted in 5% NFDM or 5% BSA overnight, with shaking at 4° C. For EphA2 detection, the blots were probed with an anti-EphA2 polyclonal antibody (Santa Cruz Biotechnology, Santa Cruz, Calif.; sc-294). The blots were washed three times with TBST and probed with goat anti-rabbit IgG (Santa Cruz, sc-2004) or with goat anti-mouse IgG (Santa Cruz, sc-2005) linked to horseradish peroxidase (HRP). Bands were visualized on film (Pierce) using the ECL reagent, SuperSignal West Pico™ (Pierce).
As described above, we chose siRNA targeting EGFR; knockdown of this receptor is non-lethal, but has clinical relevance in the treatment of drug resistant ovarian carcinomas. To determine if we could effectively knockdown EGFR in vitro, EGFR siRNA was encapsulated at a concentration of 16.6 μg of EGFR siRNA/mg of nanogels, using the loading technique described above. […]

Hey cells [3] = test: Chemosensitization to docetaxel (Tox8), Hey cells; settings: control treatments
Procedure: Treatment with docetaxel. Hey or SK-OV-3 cells were plated in 96-well cell culture plates at a concentration of 1×10^4 cells/well. Hey or SK-OV-3 cells were subjected to nanogel delivery of siRNA at nanogel concentrations of 1000, 100, 10, and 1 μg/mL. Forty-eight hours after siRNA delivery, docetaxel was added to Hey or SK-OV-3 cells at concentrations ranging from 0.01-1000 nM. Treatment wells were set up in triplicate, and the cells were incubated with docetaxel for an additional 4 days. After treatment, the cells were washed with PBS, and 100 μL of medium was added back to the wells. To this, 10 μL of Tox8 was added to determine cell viability. The cells were incubated with the Tox8 reagent according to the manufacturer's instructions. The fluorescence was measured ([…]) by a Spectramax Gemini Fluorescence Microplate Reader (Molecular Devices, Sunnyvale, Calif.). Wells without cells but with Tox8 were used as controls and subtracted from all treatments as background. Each experiment was performed in duplicate.
Statistical analysis. Statistical analysis of the immunoblot data was performed using a non-parametric ANOVA (Kruskal Wallis) test. If significance was indicated, a Dunn's post-test was used to determine significance between groups. […]

Substance	cell fluorescence relative to cell autofluorescence (Hey cells [1])	blue (dead) cells (Hey cells [2])	EGFR expression of control treatments compared to untreated cells (EGFR)	sensitivity to docetaxel versus untreated controls (Hey cells [3])
SCR-conjugated nanogels: nanogels bearing the scrambled peptide DYPSMAMYSPSVC (SEQ ID NO 2), control (also: conjugated to nanogels) [reference compound]	only slightly greater than the cell autofluorescence background signal	not observed	–	–
YSAYPDSVPMMSC (listed as Homo sapiens) [YSA peptide]	–	–	diminished EGFR expression	increased sensitivity to docetaxel
